What all share (format): cell-based, human
The subject of test [1] is caspase-3/7, caspase-8, caspase-9, PARP in RH30 and RD cells. The test is described as follows: Caspase-Glo assays and western blots of apoptosis markers. The method, then:
Cells were lysed at 4 °C in whole-cell lysis buffer (0.125 M Tris-HCl pH 6.8, 4% SDS, 0.2% glycerol, 0.1% β-mercaptoethanol and a pinch of bromophenol blue) and boiled for 10 min. Proteins were resolved by SDS-PAGE (6–15% gels) and transferred to Hybond ECL membranes (Amersham, UK). The membranes were incubated with primary antibodies: rabbit polyclonal antibodies to phospho-histone H2A.X (Ser139) (#2577), phospho-chk2 (Thr68) (#221), phospho-p38 MAPK (Thr180/Tyr182) (#9211), cleaved caspase-3 (Asp175) (#9661), PARP (#9542), caspase-9 (#9502), LC3B (#2775), p38 MAPK (#9212), rabbit monoclonal antibody to cleaved caspase-7 (Asp198) (D6H1) (#8438), mouse monoclonal antibodies to phospho-ATM (Ser1981) (D6H9) (#5883), Cyclin B1 (V152) (#4135), Caspase-8 (1C12) (#9746), SQSTM1/p62 (D5L7G) (#88588) from Cell Signaling Technology (Massachusetts, USA); mouse monoclonal antibody to p53 (DO-1) (sc-126), rabbit polyclonal antibodies to p21 (C-19) (sc-397), cyclin A (H-432) (sc-751), cyclin B1 (H-433)(sc-752), PARP-1 (H-250) (sc-7150) from Santa Cruz Biotechnology (Texas, USA); rabbit polyclonal antibody to p38 MAP kinase (M0800) from Sigma Aldrich. After primary antibody incubation, membranes were incubated with goat anti-rabbit or goat anti-mouse HRP-conjugated secondary antibodies (Bio-Rad Laboratories, California, USA). Antibody reactive proteins were visualized by enhanced chemiluminescence using SuperSignal West Pico Chemiluminescent Substrate Kit (Thermo Fisher Scientific) or WesternBright ECL HRP Substrate Kit (Advansta, California, USA). Densitometry readings were obtained using ImageJ v1.50i[58] and protein expression levels were represented as a ratio of protein of interest/p38 loading control normalized to the vehicletreated control sample where appropriate. All blots are representative of at least two independent repeats.
Cells were seeded and treated for 24 h with IC50 AJ-5, vehicle or 0.5 µM (IC50) doxorubicin which was included and as a positive control. […]

Test [2] relates to RMS cells (RH30, AX-OH-1, RD, FL-OH-1). The test is described as follows: Scratch motility assay, RMS cells. The following applies: 24 h pre-treatment at IC50, all RMS cells tested. Here is the method:
Cells were seeded in 6-well plates and treated with IC50 AJ-5 and vehicle for 24 h. Cells were then collected, counted and replated to achieve 100% confluency in a 24-well plate. The following day a sterile 2 µL pipette tip was used to make a vertical scratch in the cell monolayer of each well and the cells treated with 10 µM mitomycin C (M4287; Sigma Aldrich) to inhibit proliferation. Cells were imaged at 0, 3, 6, 9, 12 and 24 h post wound formation and ImageJ v1.50i[58] was used to calculate the area of the scratch. The total areas migrated was determined by subtracting the area for a specific time point from the area measured at 0h.

Test [3] deals with SW1353, SW872, SW982, HT1080 and MG-63 cells. The test is described as follows: Selectivity index of sarcoma subtype cell lines (MTT). The following applies: relative to the combined IC50 values for normal fibroblasts (FG0 and DMB); SW1353, SW872, SW982, HT1080, MG-63. The method, then:
Cells were seeded in 96-well plates and treated the next day with a range of AJ-5 concentrations (0.1–1.0 μM) or vehicle ([…]) for 48 h. Cell viability was measured using the 3-(4,5-dimethylthiazol-2-yl)-2,5-diphenyl-trazolium bromide (MTT) assay (11465007001; Sigma Aldrich) according to the manufacturer’s instructions. Mean cell viability was calculated as a percentage of the mean vehicle control. At least three independent experiments in quadruplicate were performed from which the half maximal inhibitory concentration (IC50) was determined using GraphPad Prism version 6.0 (GraphPad Software, California, USA). The selectivity index (SI) was determined by dividing the IC50 of a normal cell line by the IC50 of a cancer cell line.
Fig. S2 AJ-5 is cytotoxic in a range of sarcoma subtypes. […] Graphs show mean cell viability as a percentage of vehicle control ± SEM for each concentration of AJ-5 determined from three independent experiments performed in quadruplicate. […] (B) Selectivity indices (SIs) were determined for each cell line by dividing the IC50 of each non-malignant cell line (Fig. 1C) including normal fibroblast cell lines (FG0 and DMB) and mesenchymal stem cell line (A10021501) by the IC50 of each sarcoma cell line. […] Colonies were stained with crystal violet and images from three independent repeats were quantified using the ImageJ plugin ColonyArea. […]

The record followed here is PMC6349869, “The palladacycle complex AJ-5 induces apoptotic cell death while reducing autophagic flux in rhabdomyosarcoma cells” (Cell Death Discovery, 2019).

The structures appear in SMILES notation. Bounds are passed on as bounds.

Regarding `CC(C)c1cccc(C(C)C)c1[N+]1=Cc2cccc[c]2[Pd-2]1([Cl])[P+](CC[P+](c1ccccc1)(c1ccccc1)[Pd-2]1([Cl])[c]2ccccc2C=[N+]1c1c(C(C)C)cccc1C(C)C)(c1ccccc1)c1ccccc1` (centres unmarked) [AJ-5], in test [1] (RD cells, 24 h, IC50 AJ-5 vs 0.5 µM doxorubicin), the “Activation of caspases-8 and -9 compared with IC50 doxorubicin” value was “more robustly activated”. For the same compound, the “Active (cleaved) caspases-3/7 and cleaved PARP” value in test [1] (RH30 and RD) is “increased levels”. For the same compound, the “Cleaved caspase-8 and caspase-9” value in test [1] (RH30 and RD, western blotting and Caspase-Glo) is “increased levels and activity”. The “Migratory ability (area migrated)” value in test [2] is “reduced the migratory ability”. The “Selectivity index (SI)” value in test [3] was over 2.
